Experimental data as given in patent publication US20230257351A1, “SUBSTITUTED N-[…] HAVING P2X4 RECEPTOR ANTAGONISTIC ACTIVITY” (Bayer Aktiengesellschaft, priority 2020, published 2023).

Biological target: T1, human P2X4 (Homo sapiens, UniProt Q99571)
T1 construct: expressed in transfected cells
T1 sequence (Q99571 1-388): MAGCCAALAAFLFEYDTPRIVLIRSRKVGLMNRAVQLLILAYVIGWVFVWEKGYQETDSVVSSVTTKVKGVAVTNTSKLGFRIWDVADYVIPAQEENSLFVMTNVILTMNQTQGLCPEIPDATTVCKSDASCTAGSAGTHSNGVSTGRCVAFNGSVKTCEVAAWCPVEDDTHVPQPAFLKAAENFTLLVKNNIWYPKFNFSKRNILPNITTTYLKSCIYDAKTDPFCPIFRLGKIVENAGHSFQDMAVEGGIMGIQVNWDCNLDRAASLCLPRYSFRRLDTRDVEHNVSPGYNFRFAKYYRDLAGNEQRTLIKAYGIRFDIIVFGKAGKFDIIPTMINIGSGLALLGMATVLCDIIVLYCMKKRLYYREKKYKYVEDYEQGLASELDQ
Experiment: Human P2X4 HEK Cell FLIPR Assay
Format: cell-based
Settings: HEK293 stably expressing human P2X4, agonist Bz-ATP 3 μM (EC80)
How it was run: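 Compounds were preincubated 30 min at room temperature on Fluo8-AM-loaded HEK293 cells stably expressing human P2X4. The response was the calcium fluorescence rise on Bz-ATP addition.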

`CC(=O)N(c1ccc(F)c(F)c1)c1cc(NC(=O)Cc2ccc(F)cc2Cl)ccn1` [Example 68, N-{4-[2-(2-chloro-4-fluorophenyl)acetamido]pyridin-2-yl}-N-(3,4-difluorophenyl)acetamide] was tested, and the “Human P2X4 HEK Cells (FLIPR Assay) avg Efficacy” value was 95% and the IC50 (read-out: Human P2X4 HEK Cells (FLIPR Assay) avg IC50) was 0.411 µM.
